From PMC7031696 (Cell chemical biology, 2019)
Where two headings read alike, the source gives them in different places.

What was measured:
[1] = test system: Plasmodium falciparum 3D7-A10 parasites; experiment: Stage specificity assay (8-h exposure of synchronized stages, IC50^8h); assay type: cell-based; conditions: for IC50: Plasmodium falciparum
[2] = test system: asynchronous 3D7-A10 parasite cultures; experiment: Standard 72-h exposure asexual blood stage susceptibility assay (IC50^72h); assay type: cell-based, Plasmodium falciparum; conditions: Plasmodium falciparum, 3D7, 72 h, read-out: Overall (72hr assay) Mean IC50 (IC50^72h)
[3] = test system: 3D7-MR4 trophozoite parasite-infected RBCs; experiment: Metabolomic profiling (hydrophilic metabolite changes, UHPLC-MS); assay type: cell-based, Plasmodium falciparum

SMILES: FC(F)(F)c1ccc(Nc2cc3[nH]c(-c4cccc(C(F)(F)F)c4)nc3cn2)nc1 [MMV675939]
- Ratio lowest IC50 8hr/IC50 72hr ([1]; 3D7-A10): 2.0
- IC50 ([1]; 3D7, read-out: Early rings Mean IC50 (IC50^8h), 8-h exposure 0–8 hr, 3D7-A10, survival at 60 h): 1.17 µM
- IC50 ([1]; 3D7, read-out: Early trophozoites Mean IC50 (IC50^8h), 8-h exposure 16–24 hr, 3D7-A10, survival at 60 h): 0.0629 µM
- IC50 ([1]; 3D7, read-out: Late rings Mean IC50 (IC50^8h), 8-h exposure 8–16 hr, 3D7-A10, survival at 60 h): 0.268 µM
- IC50 ([1]; 3D7, read-out: Late trophozoites Mean IC50 (IC50^8h), 8-h exposure 24–32 hr, 3D7-A10, survival at 60 h): 0.146 µM
- IC50 ([1]; 3D7, read-out: Schizonts Mean IC50 (IC50^8h), 8-h exposure 32–40 hr, 3D7-A10, survival at 60 h): 1.65 µM
- IC50^8h relative to IC50^72h value ([1]; most susceptible stages): 2 fold
- Stage of peak activity (Figure 6) ([1]; period when the parasite was most susceptible (lowest IC50^8h)): early and late trophozoites
- Peak Activity (Table S1) ([1]; stage(s) with the lowest IC50^8h): Trophs
- IC50 [2]: 0.0308 µM
- changes within the set of metabolites detected (low fold change group) ([3]; 10 × IC50^72h, 2.5 hr, trophozoites): did not induce major changes
- Log2(fold changes) 3-phosphoglycerate ([3]; metabolite 3-phosphoglycerate, log2 fold change): -0.0740
- Log2(fold changes) 4-Pyridoxic acid ([3]; metabolite 4-Pyridoxic acid, log2 fold change): 0.0934
- Log2(fold changes) 4-aminobutyrate ([3]; metabolite 4-aminobutyrate, log2 fold change): -0.0838
- Log2(fold changes) 4-phosphopantetheine ([3]; metabolite 4-phosphopantetheine, log2 fold change): 0.0000
- Log2(fold changes) 4-phosphopantothenate ([3]; metabolite 4-phosphopantothenate, log2 fold change): -0.1644
- Log2(fold changes) 5-aminopentanoic acid ([3]; metabolite 5-aminopentanoic acid, log2 fold change): 0.0000
- Log2(fold changes) 5-methyl-THF ([3]; metabolite 5-methyl-THF, log2 fold change): 0.0000
- Log2(fold changes) 5-phosphoribosyl-1-pyrophosphate ([3]; metabolite 5-phosphoribosyl-1-pyrophosphate, log2 fold change): 0.0000
- Log2(fold changes) 6-phospho-D-gluconate ([3]; metabolite 6-phospho-D-gluconate, log2 fold change): -0.0601
- Log2(fold change) HVDD ([3]; metabolite HVDD): 0.0907
- Log2(fold change) Hydroxyisocaproic acid ([3]; metabolite Hydroxyisocaproic acid): 0.0000
- Log2(fold change) IDP ([3]; metabolite IDP): 0.0000
- Log2(fold change) IMP ([3]; metabolite IMP): -0.0368
- Log2(fold change) Inositol ([3]; metabolite Inositol): 0.0000
- Log2(fold change) Isopentyl-PP ([3]; metabolite Isopentyl-PP): -0.3198
- Log2(fold change) L-arginino-succinate ([3]; metabolite L-arginino-succinate): 0.0258
- Log2(fold change) LD ([3]; metabolite LD): 0.2379
- Log2(fold change) Myristoyl/tetradecanoyl-CoA ([3]; metabolite Myristoyl/tetradecanoyl-CoA): 0.0000
- Log2(fold change) N-Acetyl-L-alanine ([3]; metabolite N-Acetyl-L-alanine): 0.0194
- Log2(fold change) N-acetyl-L-ornithine ([3]; metabolite N-acetyl-L-ornithine): -0.1313
- Log2(fold change) N-acetyl-glucosamine-1/6-phosphate ([3]; metabolite N-acetyl-glucosamine-1/6-phosphate): -0.1343
- Log2(fold change) N-acetyl-glutamate ([3]; metabolite N-acetyl-glutamate): -0.1472
- Log2(fold change) N-acetyl-glutamine ([3]; metabolite N-acetyl-glutamine): 0.0192
- Log2(fold change) N-carbamoyl-L-aspartate ([3]; metabolite N-carbamoyl-L-aspartate): -0.1451
- Log2(fold change) NAD+ ([3]; metabolite NAD+): -0.0175
- Log2(fold change) NADH ([3]; metabolite NADH): -0.2763
- Log2(fold change) NADP+ ([3]; metabolite NADP+): 0.0809
- Log2(fold change) NADPH ([3]; metabolite NADPH): -0.4301
- Log2(fold change) O-acetyl-L-serine ([3]; metabolite O-acetyl-L-serine): -0.0735
- Log2(fold change) Octoluse 8/1P ([3]; metabolite Octoluse 8/1P): -0.1460
- Log2(fold change) Octoluse Bisphosphate ([3]; metabolite Octoluse Bisphosphate): -0.0903
- Log2(fold change) PD ([3]; metabolite PD): -0.0797
- Log2(fold change) PE ([3]; metabolite PE): -0.0211
- Log2(fold change) PEE ([3]; metabolite PEE): 0.0917
- Log2(fold change) PEEK ([3]; metabolite PEEK): 0.1721
- Log2(fold change) PVNF ([3]; metabolite PVNF): 0.1648
- Log2(fold change) Pyroglutamic acid ([3]; metabolite Pyroglutamic acid): -0.1915
- Log2(fold change) Pyrophosphate ([3]; metabolite Pyrophosphate): 0.0000
- Log2(fold change) Ribose-5-phosphate ([3]; metabolite Ribose-5-phosphate): -0.1384
- Log2(fold change) S-adenosyl-L-homocysteine ([3]; metabolite S-adenosyl-L-homocysteine): 0.0407
- Log2(fold change) S-adenosyl-L-methioninamine ([3]; metabolite S-adenosyl-L-methioninamine): -0.3534
- Log2(fold change) S-adenosyl-L-methionine ([3]; metabolite S-adenosyl-L-methionine): 0.0000
- Log2(fold change) S-methyl-5'-thioadenosine ([3]; metabolite S-methyl-5'-thioadenosine): 0.0820
- Log2(fold change) SD ([3]; metabolite SD): -0.1003
- Log2(fold change) SDL ([3]; metabolite SDL): 0.0000
- Log2(fold change) SID ([3]; metabolite SID): 0.1202
- Log2(fold change) Sedoheptulose bisphosphate ([3]; metabolite Sedoheptulose bisphosphate): -0.2322
- Log2(fold change) Thiamine pyrophosphate ([3]; metabolite Thiamine pyrophosphate): 0.0281
- Log2(fold changes) UDP-D-glucose ([3]; metabolite UDP-D-glucose, log2 fold change): -0.0394
- Log2(fold changes) UDP-D-glucuronate ([3]; metabolite UDP-D-glucuronate, log2 fold change): -0.0296
- Log2(fold changes) UDP-N-acetyl-glucosamine ([3]; metabolite UDP-N-acetyl-glucosamine, log2 fold change): -0.1021
- Log2(fold changes) UDP ([3]; metabolite UDP, log2 fold change): -0.2552
- Log2(fold changes) UMP ([3]; metabolite UMP, log2 fold change): -0.1084
- Log2(fold changes) UTP ([3]; metabolite UTP, log2 fold change): 0.0000
- Log2(fold change) hydroxyphenylpyruvate ([3]; metabolite hydroxyphenylpyruvate): 0.0000
- Log2(fold change) hydroxyproline/Aminolevulinate ([3]; metabolite hydroxyproline/Aminolevulinate): -0.1121
- Log2(fold change) hypoxanthine ([3]; metabolite hypoxanthine): -0.1075
- Log2(fold change) indole ([3]; metabolite indole): 0.0000
- Log2(fold change) inosine ([3]; metabolite inosine): 0.0076
- Log2(fold change) isoleucine ([3]; metabolite isoleucine): 0.0000
- Log2(fold change) lactate ([3]; metabolite lactate): -0.1204
- Log2(fold change) leucine ([3]; metabolite leucine): 0.0000
- Log2(fold change) lysine ([3]; metabolite lysine): -0.3554
- Log2(fold change) malate ([3]; metabolite malate): -0.1053
- Log2(fold change) maleic acid ([3]; metabolite maleic acid): -0.1158
- Log2(fold change) methionine ([3]; metabolite methionine): -0.0422
- Log2(fold change) myo-inositol ([3]; metabolite myo-inositol): -0.1497
- Log2(fold change) nicotinamide mononucleotide ([3]; metabolite nicotinamide mononucleotide): 0.0424
- Log2(fold change) nicotinate ([3]; metabolite nicotinate): -0.2143
- Log2(fold change) ornithine ([3]; metabolite ornithine): 0.2780
- Log2(fold change) orotate ([3]; metabolite orotate): -0.3359
- Log2(fold change) orotidine-5'-phosphate ([3]; metabolite orotidine-5'-phosphate): -0.1978
- Log2(fold change) oxaloacetate ([3]; metabolite oxaloacetate): -0.2404
- Log2(fold change) p-aminobenzoate ([3]; metabolite p-aminobenzoate): 0.0000
- Log2(fold change) p-hydroxybenzoate ([3]; metabolite p-hydroxybenzoate): 0.0000
- Log2(fold change) pantothenate ([3]; metabolite pantothenate): -0.0579
- Log2(fold change) phenylalanine ([3]; metabolite phenylalanine): -0.1115
- Log2(fold change) phenylpyruvate ([3]; metabolite phenylpyruvate): 0.0000
- Log2(fold change) phosphoenolpyruvate ([3]; metabolite phosphoenolpyruvate): 0.0011
- Log2(fold change) prephenate ([3]; metabolite prephenate): -0.0728
- Log2(fold change) proline ([3]; metabolite proline): -0.1132
- Log2(fold change) pyridoxine ([3]; metabolite pyridoxine): 0.1122
- Log2(fold change) pyruvate ([3]; metabolite pyruvate): -0.1845
- Log2(fold change) riboflavin ([3]; metabolite riboflavin): 0.2197
- Log2(fold change) ribose ([3]; metabolite ribose): -0.0488
- Log2(fold change) ribose-phosphate ([3]; metabolite ribose-phosphate): -0.3090
- Log2(fold change) ribulose-5-phosphate ([3]; metabolite ribulose-5-phosphate): -0.1779
- Log2(fold change) serine ([3]; metabolite serine): -0.0132
- Log2(fold change) sn-glycerol-3-phosphate ([3]; metabolite sn-glycerol-3-phosphate): -0.0322
- Log2(fold change) succinate/Methylmalonic acid ([3]; metabolite succinate/Methylmalonic acid): 0.0214
- Log2(fold change) succinyl-CoA/methylmalonyl-CoA ([3]; metabolite succinyl-CoA/methylmalonyl-CoA): 0.0000
- Log2(fold change) taurine ([3]; metabolite taurine): -0.5626
- Log2(fold change) thiamine ([3]; metabolite thiamine): -0.2223
- Log2(fold change) threonine/homoserine ([3]; metabolite threonine/homoserine): -0.0861
- Log2(fold change) thymidine ([3]; metabolite thymidine): 0.0000
- Log2(fold changes) thymine ([3]; metabolite thymine, log2 fold change): 0.0000
- Log2(fold changes) trehalose-6-Phosphate ([3]; metabolite trehalose-6-Phosphate, log2 fold change): 0.0000
- Log2(fold changes) tryptophan ([3]; metabolite tryptophan, log2 fold change): -0.3649
- Log2(fold changes) tyrosine ([3]; metabolite tyrosine, log2 fold change): -0.0724
- Log2(fold changes) uridine ([3]; metabolite uridine, log2 fold change): 0.0000
